According to patent US6407103B2, “Indeno [1,2-c] pyrazol-4-ones and their uses” (Bristol-Myers Squibb Pharma Company, priority 1998, dated 2002):
Structures can show the parent of a compound that is named as a salt.

With `CN1CCC(CNC(=O)c2ccc(-c3[nH]nc4c3C(=O)c3c(NC(=O)NN5CCOCC5)cccc3-4)s2)C1` (centres unmarked) (as salt: TFA) [Example CLXXXIII, 3-(5-((1-methylpyrrolidin-3-yl)methylaminocarbonyl)-2-thienyl)-5-(morpholinocarbamoylamino)indeno[1,2-c]pyrazol-4-one] the melting point was 151 °C.
For `O=C(Nc1cccc2c1C(=O)c1c-2n[nH]c1-c1ccc(C(=O)N2CCC[C@@H]2CN2CCCC2)s1)NN1CCOCC1` (as salt: TFA) [Example CLXXXIV, 3-(5-(2(R)-(pyrrolidinomethyl)pyrrolidinocarbonyl)-2-thienyl)-5-(morpholinocarbamoylamino)indeno[1,2-c]pyrazol-4-one], the melting point was 166 °C.
With `O=C(Nc1cccc2c1C(=O)c1c-2n[nH]c1-c1ccc(C(=O)N2CCC[C@H]2CO)s1)NN1CCOCC1` (as salt: TFA) [Example CLXXXV, 3-(5-(2(S)-(hydroxymethyl)pyrrolidinocarbonyl)-2-thienyl)-5-(morpholinocarbamoylamino)indeno[1,2-c]pyrazol-4-one] the melting point was 267 °C.
Compound `COC[C@H]1CCCN1C(=O)c1ccc(-c2[nH]nc3c2C(=O)c2c(NC(=O)NN4CCOCC4)cccc2-3)s1` (as salt: TFA) [Example CLXXXVI, 3-(5-(2(R)-(methoxymethyl)pyrrolidinocarbonyl)-2-thienyl)-5-(morpholinocarbamoylamino)indeno[1,2-c]pyrazol-4-one] has a melting point of 262 °C.
With `O=C(Nc1cccc2c1C(=O)c1c-2n[nH]c1-c1ccc(C(=O)N2CCC[C@H]2CNc2ccccc2)s1)NN1CCOCC1` (as salt: TFA) [Example CLXXXVII, 3-(5-(2(S)-(phenylaminomethyl)pyrrolidinocarbonyl)-2-thienyl)-5-(morpholinocarbamoylamino)indeno[1,2-c]pyrazol-4-one] the melting point was > 300 °C.
With `COC[C@H]1CCCN1NC(=O)c1ccc(-c2[nH]nc3c2C(=O)c2c(NC(=O)NN4CCOCC4)cccc2-3)s1` (as salt: TFA) [Example CLXXXVIII, 3-(5-(2(R)-(methoxymethyl)pyrrolidinoaminocarbonyl)-2-thienyl)-5-(morpholinocarbamoylamino)indeno[1,2-c]pyrazol-4-one] the melting point was 266 °C.
Work on `CNc1ccc(NC(=O)c2ccc(-c3[nH]nc4c3C(=O)c3c(NC(=O)NN5CCOCC5)cccc3-4)s2)cc1` (as salt: TFA) [Example CXCVI, 3-(5-((4-methylaminophenyl)aminocarbonyl)-2-thienyl)-5-(morpholinocarbamoylamino)indeno[1,2-c]pyrazol-4-one] yielded a melting point of 230 °C.
`CC(=O)Nc1ccc(NC(=O)c2ccc(-c3[nH]nc4c3C(=O)c3c(NC(=O)NN5CCOCC5)cccc3-4)s2)cc1` (as salt: TFA) [Example CXCVII, 3-(5-((4-acetamidophenyl)aminocarbonyl)-2-thienyl)-5-(morpholinocarbamoylamino)indeno[1,2-c]pyrazol-4-one] showed a melting point of 253 °C.
Compound `CCN(CC)c1ccc(NC(=O)c2ccc(-c3[nH]nc4c3C(=O)c3c(NC(=O)NN5CCOCC5)cccc3-4)s2)cc1` (as salt: TFA) [Example CXCVIII, 3-(5-(4-(diethylamino)phenylaminocarbonyl)-2-thienyl)-5-(morpholinocarbamoylamino)indeno[1,2-c]pyrazol-4-one] has a melting point of 198 °C.
In the case of `O=C(Nc1cccc2c1C(=O)c1c-2n[nH]c1-c1ccc(C(=O)N2CCNCC2)s1)NN1CCOCC1` (as salt: TFA) [Example CXLIX, 3-(5-piperazinocarbonyl-2-thienyl)-5-(morpholinocarbamoylamino)indeno [1,2-c]pyrazol-4-one], the melting point was 241 °C.
For `O=C(Nc1cccc2c1C(=O)c1c-2n[nH]c1-c1ccc(C(=O)NN2CCCC2)s1)NN1CCOCC1` (as salt: TFA) [Example CXLVI, 3-(5-pyrrolidinoaminocarbonyl-2-thienyl)-5-(morpholinocarbamoylamino)indeno [1,2-c]pyrazol-4-one], the melting point was 213 °C.
Compound `O=C(Nc1cccc2c1C(=O)c1c-2n[nH]c1-c1ccc(C(=O)NN2CCCCC2)s1)NN1CCOCC1` (as salt: TFA) [Example CXLVII, 3-(5-piperidinoaminocarbonyl-2-thienyl)-5-(morpholinocarbamoylamino)indeno [1,2-c]pyrazol-4-one] has a melting point of 189 °C.
`COc1ccc(-c2[nH]nc3c2C(=O)c2c(NC(=O)Cc4ccc5c(c4)OCO5)cccc2-3)cc1` (hydrate or solvate) [Example XVII, 3-(4-methoxyphenyl)-5-((3,4-methylenedioxyphenyl)acetamido)indeno[1,2-c]pyrazol-4-one] gave a melting point of 297 °C.
For `COc1ccc(-c2[nH]nc3c2C(=O)c2c(NC(=O)N[C@@H]4CCCC[C@@H]4N)cccc2-3)cc1` (relative stereo) [Example LXVII, 3-(4-methoxyphenyl)-5-((cis-2-aminocyclohexylcarbamoyl)amino)indeno[1,2-c]pyrazol-4-one], the melting point was > 300 °C.
For `NC(=O)Nc1cccc2c1C(=O)c1c-2n[nH]c1-c1ccsc1` [Example C, 3-(3-thienyl)-5-(carbamoylamino)indeno[1,2-c]pyrazol-4-one], the melting point was > 280 °C.
In the case of `Cn1ccc(-c2[nH]nc3c2C(=O)c2c(NC(=O)NN4CCOCC4)cccc2-3)c1` [Example CC, 3-(1-methyl-3-pyrrolyl)-5-(morpholinocarbamoylamino)indeno[1,2-c]pyrazol-4-one], the melting point was 301 °C.
Work on `CCOC(=O)c1ccc(-c2[nH]nc3c2C(=O)c2c(NC(=O)NN4CCC[C@@H]4COC)cccc2-3)s1` [Example CCI, 3-(5-carboethoxy-2-thienyl)-5-(2 (R)-(methoxymethyl)pyrrolidinocarbamoylamino)indeno[1,2-c]pyrazol-4-one] yielded a melting point of 221 °C.
`CC(C)(C)OC(=O)NCCCC(=O)N1CCC(c2[nH]nc3c2C(=O)c2c(NC(=O)NN4CCOCC4)cccc2-3)CC1` [Example CCLXXVI, 3-(1-(3-(t-butoxycarbonylamino)propylcarbonyl)piperidin-4-yl)-5-(morpholinocarbamoylamino)indeno[1,2-c]pyrazol-4-one] gave a melting point of 73 °C.
In the case of `CC(C)(C)OC(=O)N1CCC(C(=O)N2CCC(c3[nH]nc4c3C(=O)c3c(NC(=O)NN5CCOCC5)cccc3-4)CC2)CC1` [Example CCLXXXI, 3-(1-((1-(t-butoxycarbonyl)piperidin-4-yl)carbonyl)piperidin-4-yl)-5-(morpholinocarbamoylamino)indeno[1,2-c]pyrazol-4-one], the melting point was 220 °C.
With `CC(C)(C)OC(=O)N1CCCC(C(=O)N2CCC(c3[nH]nc4c3C(=O)c3c(NC(=O)NN5CCOCC5)cccc3-4)CC2)C1` (centres unmarked) [Example CCLXXXIX, 3-(1(1-(t-butoxycarbonyl)piperidin-3-ylcarbonyl)piperidin-4-yl)-5-(morpholinocarbamoylamino)indeno[1,2-c]pyrazol-4-one] the melting point was 196 °C.
With `CC(C)(C)OC(=O)N[C@H]1CC[C@H](C(=O)N2CCC(c3[nH]nc4c3C(=O)c3c(NC(=O)NN5CCOCC5)cccc3-4)CC2)CC1` [Example CCLXXXVI, 3-(1-(trans-4-(t-butoxycarbonylamino)cyclohexylcarbonyl)piperidin-4-yl)-5-(morpholinocarbamoylamino)indeno[1,2-c]pyrazol-4-one] the melting point was 178 °C.
Work on `CC(C)(C)OC(=O)N1CCN(c2ccc(-c3[nH]nc4c3C(=O)c3c(NC(=O)NN5CCOCC5)cccc3-4)cc2)CC1` [Example CCX, 3-(4-(4-t-butoxycarbonylpiperazino)phenyl)-5-(morpholinocarbamoylamino)indeno[1,2-c]pyrazol-4-one] yielded a melting point of 242 °C.
For `CC(C)(C)OC(=O)Nc1ccc(C(=O)N2CCC(c3[nH]nc4c3C(=O)c3c(NC(=O)NN5CCOCC5)cccc3-4)CC2)cc1` [Example CCXCIX, 3-(1-(4-(t-butoxycarbonylamino)phenylcarbonyl)piperidin-4-yl)-5-(morpholinocarbamoylamino)indeno[1,2-c]pyrazol-4-one], the melting point was 212 °C.
With `CC(C)(C)OC(=O)Nc1ccc(CC(=O)N2CCC(c3[nH]nc4c3C(=O)c3c(NC(=O)NN5CCOCC5)cccc3-4)CC2)cc1` [Example CCXCVI, 3-(1-(4-(t-butoxycarbonylamino)benzylcarbonyl)piperidin-4-yl)-5-(morpholinocarbamoylamino)indeno[1,2-c]pyrazol-4-one] the melting point was 177 °C.
With `NC(=O)Nc1cccc2c1C(=O)c1c-2n[nH]c1-c1csc(Cl)c1` [Example CI, 3-(5-chloro-3-thienyl)-5-(carbamoylamino)indeno[1,2-c]pyrazol-4-one] the melting point was > 300 °C.
With `Cc1cc(-c2[nH]nc3c2C(=O)c2c(NC(N)=O)cccc2-3)c(C)s1` [Example CII, 3-(2,5-dimethyl-3-thienyl)-5-(carbamoylamino)indeno[1,2-c]pyrazol-4-one] the melting point was > 280 °C.
For `NC(=O)Nc1cccc2c1C(=O)c1c-2n[nH]c1-c1ccco1` [Example CIII, 3-(2-furanyl)-5-(carbamoylamino)indeno[1,2-c]pyrazol-4-one], the melting point was 278 °C.
For `Cn1ccc(-c2[nH]nc3c2C(=O)c2c(NC(N)=O)cccc2-3)c1` [Example CXII, 3-(1-methyl-3-pyrrolyl)-5-(carbamoylamino)indeno[1,2-c]pyrazol-4-one], the melting point was > 300 °C.
In the case of `CC(C)c1[nH]nc2c1C(=O)c1c(NC(=O)CN3CCC(C(N)=O)CC3)cccc1-2` [Example CXV, 3-(i-propyl)-5-((4-carbamoylpiperidino)acetamido)indeno [1,2-c]pyrazol-4-one], the melting point was 224 °C.
With `CCc1[nH]nc2c1C(=O)c1c(NC(=O)CN3CCC(CN)CC3)cccc1-2` [Example CXVII, 3-(ethyl)-5-(4-(aminomethyl)piperidinoacetamido)indeno [1,2-c]pyrazol-4-one] the melting point was 174 °C.
Compound `CC(C)c1[nH]nc2c1C(=O)c1c(NC(=O)CN3CCC(CN)CC3)cccc1-2` [Example CXVIII, 3-(i-propyl)-5-(4-(aminomethyl)piperidinoacetamido)indeno [1,2-c]pyrazol-4-one] has a melting point of 218 °C.
`CC(C)c1[nH]nc2c1C(=O)c1c(NC(=O)NN3CCN(C)CC3)cccc1-2` [Example CXXI, 3-(i-propyl)-5-((4-methylpiperazino)carbamoylamino)indeno [1,2-c]pyrazol-4-one] gave a melting point of 231 °C.
